Key:
Format in all cases: biochemical
[1] = molecular target: T1, Polyporus pinsitus laccase (Trametes villosa, UniProt Q99044); assay: Bleaching of methyl orange using rPpL and NOH-type enhancing agents (initial bleaching rate); conditions: rPpL solution diluted 1:200, 0.2 mM mediator, 30° C., large negative numbers = best performance
T1 construct: made in house
T1 sequence (Q99044 22-520): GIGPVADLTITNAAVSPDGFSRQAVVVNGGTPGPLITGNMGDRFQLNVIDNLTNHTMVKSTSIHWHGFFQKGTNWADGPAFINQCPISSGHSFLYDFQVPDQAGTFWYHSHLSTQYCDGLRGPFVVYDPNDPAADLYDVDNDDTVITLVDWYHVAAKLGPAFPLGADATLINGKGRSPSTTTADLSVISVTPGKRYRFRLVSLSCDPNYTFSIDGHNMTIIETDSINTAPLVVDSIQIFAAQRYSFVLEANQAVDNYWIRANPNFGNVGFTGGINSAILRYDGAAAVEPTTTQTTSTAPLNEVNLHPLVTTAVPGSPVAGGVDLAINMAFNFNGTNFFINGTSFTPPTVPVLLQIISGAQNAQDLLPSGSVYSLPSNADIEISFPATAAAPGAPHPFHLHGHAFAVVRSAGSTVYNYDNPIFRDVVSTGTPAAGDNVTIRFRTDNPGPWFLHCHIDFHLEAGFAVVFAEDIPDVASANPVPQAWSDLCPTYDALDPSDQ
Description: (§1) Britton-Robinson buffer is composed of:
(§2) Methyl orange (Merck, Germany)
(§3) Reactions were started by addition of enzyme. Absorbance at 464 nm was followed for 3 minutes (readings every 5 seconds) on a Cobas Fara at 30° C. Initial bleaching rates were determined from the first linear part of the progress curves.
(§4) The N—OH compounds listed above were tested as laccase mediators in bleaching of methyl orange with three recombinant laccases (rPpL, rMtL and rCcL) at various pH values. Large negative numbers represent the best performance.

[2] = system: Recombinant Myceliophthora thermophila laccase (rMtL); assay: Bleaching of methyl orange using rMtL and NOH-type enhancing agents (initial bleaching rate); conditions: rMtL solution diluted 1:300, 0.2 mM mediator, 30° C., large negative numbers = best performance
Description: as §1, §2, §3, §4

[3] = system: Recombinant Coprinus cinereus laccase (rCcL); assay: Bleaching of methyl orange using rCcL and NOH-type enhancing agents (initial bleaching rate); conditions: rCcL solution diluted 1:200, 0.2 mM mediator, 30° C., large negative numbers = best performance
Description: as §1, §2, §3, §4

SMILES	Initial changes per minute in A464 nm of methyl orange using rPpL ([1]; pH 4)	Initial changes per minute in A464 nm of methyl orange using rPpL ([1]; pH 5)	Initial changes per minute in A464 nm of methyl orange using rPpL ([1]; pH 6)	Initial changes per minute in A464 nm of methyl orange using rPpL ([1]; pH 7)	Initial changes per minute in A464 nm of methyl orange using rMtL ([2]; pH 4)	Initial changes per minute in A464 nm of methyl orange using rMtL ([2]; pH 5)	Initial changes per minute in A464 nm of methyl orange using rMtL ([2]; pH 6)	Initial changes per minute in A464 nm of methyl orange using rMtL ([2]; pH 7)	Initial changes per minute in A464 nm of methyl orange using rCcL ([3]; pH 4)	Initial changes per minute in A464 nm of methyl orange using rCcL ([3]; pH 5)	Initial changes per minute in A464 nm of methyl orange using rCcL ([3]; pH 6)	Initial changes per minute in A464 nm of methyl orange using rCcL ([3]; pH 7)	Initial changes per minute in A464 nm of methyl orange using rCcL ([3]; pH 8)
[O-][n+]1cccc2ccccc21 [Quinoline-N-oxide]	−0.074 per minute	−0.041 per minute	−0.016 per minute	−0.002 per minute	−0.016 per minute	−0.011 per minute	−0.002 per minute	0.000 per minute	−0.004 per minute	−0.006 per minute	−0.010 per minute	−0.008 per minute	−0.004 per minute
O=c1c2ccccc2nnn1O [3-hydroxy-1,2,3-benzotriazin-4(3H)-one, 3-Hydroxy-1,2,3-benzotriazin-4(3H)-one]	−0.020 per minute	−0.020 per minute	−0.008 per minute	0.000 per minute	−0.016 per minute	−0.011 per minute	−0.001 per minute	0.002 per minute	0.004 per minute	−0.004 per minute	−0.011 per minute	−0.008 per minute	−0.002 per minute
O=C1c2ccccc2C(=O)N1O [N-hydroxyphthalimide]	−0.050 per minute	−0.035 per minute	−0.011 per minute	−0.001 per minute	−0.019 per minute	−0.016 per minute	−0.005 per minute	0.000 per minute	−0.006 per minute	−0.007 per minute	−0.014 per minute	−0.011 per minute	−0.004 per minute
On1nnc2ccccc21 [1-hydroxybenzotriazole, 1-Hydroxybenzotriazole]	−0.206 per minute	−0.077 per minute	−0.017 per minute	−0.005 per minute	−0.050 per minute	−0.019 per minute	−0.007 per minute	−0.002 per minute	−0.016 per minute	−0.018 per minute	−0.019 per minute	−0.017 per minute	−0.005 per minute

Source: US6399561B1, “Methods and compositions for bleaching a dye in solution” (Novozymes A/S, priority 1998, dated 2002)
